The numbers were not newly measured in patent US6972133B1, “Degradable animal chewing article possessing enhanced safety, durability and mouth-feel” (Seefar Technologies, Inc., priority 1999, dated 2005), which cites them from elsewhere.

Data set [1] relates to fungi (including yeast) and algae. Conditions: most active against fungi (including yeast) and algae.
Data set [2] deals with dogs.

In the case of `Cc1ccc(S(=O)(=O)C(I)I)cc1` [DIMTS, diiodomethyl-p-tolylsulphone], the anti-microbial activity entry in data set [1] is on record as “broad spectrum of anti-microbial activity”.

In the case of `Oc1cc(Cl)ccc1Oc1ccc(Cl)cc1Cl` [triclosan, 2,4,4″-trichloro-2-hydroxydiphenylether], the “solubility in dilute alkali solution” value (dilute alkali solution) is reported as “sparingly soluble”. Moreover, the “solubility in ethanol” value (ethanol) was “soluble”. Moreover, the “solubility in water” value (water, unmodified triclosan) was “insoluble”. Also, the LD50 oral toxicity in data set [2] is on record as greater than 5000 mg/kg.
